{
  "source": "patent US11254671B2",
  "about": "“Chemical compounds” (GLAXOSMITHKLINE INTELLECTUAL PROPERTY DEVELOPMENT LIMITED, priority 2017, dated 2022)",
  "system": "phosphorylated Akt at serine 473 (pAKTs473) in primary human lung fibroblasts",
  "experiment": "Highthroughput phosphorylated Akt (Ser473) in vitro immunoassay (MSD)",
  "format": "cell-based",
  "details": "Fibroblast, 1 h compound, PDGF-BB 10 ng/ml for 10 min, mean of multiple experiments, read-out: mean pIC50, inhibition of pAkt (Ser473) (converted)",
  "description": "Highthroughput Phosphorylated Akt (Ser473) In Vitro Immunoassay\nImmunoassay to measure effect of test compounds on phosphorylated Akt at serine 473 (pAKTs473) in primary human lung fibroblasts (Lonza Group Ltd, Basel, Switzerland, Catalogue No. CC-2512) using the MesoScale Discovery (MSD) platform to quantify levels of total Akt and pAKTser473.\nHuman lung fibroblasts were routinely maintained in fibroblast basal medium supplemented with 2% foetal bovine serum (FBS), 0.1% human fibroblast growth factor (FGF)-B, 0.1% insulin, 0.1% GA-100 (Lonza Group Ltd, Basel, Switzerland, Catalogue No. CC-3132) at 37° C. in 5% CO2 according to the manufacturer's protocol.\nFor the assay, cells were harvested using Trypsin/EDTA, (Lonza Group Ltd, Basel, Switzerland, Catalogue No. CC-5012), at working concentration of 0.025%, resuspended to give 3×10^5 cells/ml and 50 ul/well seeded into 384-well plates (Greiner Group, Kremsmunster, Austria, Catalogue No. 781091) in media containing 0.4% FBS and incubated o/n at 37° C. in 5% CO2.\nTest compounds were dissolved in 100% DMSO to give 10 mM stock solutions and serially diluted to generate an 11-point concentration response curve. Compound were further diluted by […] into 384-well V-bottom polypropylene plates (Greiner Group, Kremsmunster, Austria, Catalogue No. 781280) with media containing 0.4% FBS to give 50 μM top compound concentration in 0.5% DMSO.\nCompounds were transferred to 384-well plates contacting cells (0.1% DMSO final) and incubated for 1 h at 37° C. in 5% CO2, prior to stimulation with platelet-derived growth factor (PDGF)-BB (R&D Systems, Catalogue No. 220-BB) at 10 ng/ml (final) for 10 min at RT. Cell assay plates were incubated on ice and treated with lysis buffer (Cell Signalling Technology, Catalogue No. 9806) containing protease and phosphatase inhibitors (Thermo Scientific, Catalogue No. 78444) followed by shaking for 30 min at 4° C.\nMSD plates (MSD, MA6000 384-well GAR plate, Catalogue No. L21RA-2) were blocked with blocking buffer containing TBS (MSD, Cat. No. R61TX-1) with 0.5% bovine serum albumin (BSA) (Sigma Aldrich, Cat. No. A7906), 0.1% tween-20 (Sigma Aldrich, Catalogue No. P2287) and coated with rabbit-anti-human pAkt (s473) ab (Cell Signalling Technology, Catalogue No. CST #4060) at RT with shaking, followed by washing (×3) with 1×TBS wash reagent containing 0.1% Tween-20. Cell lysates (30 ul) were added and MSD plates centrifuged at 1000 rpm at 4° C. o/n.\nPlates were washed with 1×TBS wash buffer (×3), prior to addition of mouse-anti-human-total Akt ab (1 mg/ml) (Upstate (Milipore), Catalogue No. 05-591) in blocking buffer and shaken at RT for 1 h. After washing with 1×TBS wash buffer (×3), plates were incubated with goat-anti-mouse SULFO-TAG detection ab (MSD, Catalogue No. R32AC-1) (1:500 in blocking buffer) for 1 h at RT. Plates were washed with 1×TBS (×3) and read buffer (2×) (MSD, Catalogue No. R92TC-1) added before detecting electrochemiluminescence (MSD Sector Imager 6000).\nData analysis was performed by determining % inhibition values for test compounds relative to the minimum (+PDGF-BB stimulation) and maximum responses (no PDGF-BB stimulation) with non-linear regression analysis to determine IC50 values for test compounds.",
  "data": [
    {"smiles": "CC[C@H]1COCCN1c1cc(C(C)(C)S(C)(=O)=O)cc(-c2ccc3[nH]c(CO)cc3n2)n1", "note": "[Example 32]", "values": [
      {"measurement": "IC50", "result": "3.16 to 316", "unit": "nM"}
    ]},
    {"smiles": "CNCc1cc2nc(-c3cc(C(C)(C)S(C)(=O)=O)cc(N4C5CCCC4COC5)n3)ccc2[nH]1", "note": "[Example 5, 1-(5-(6-(3-oxa-9-azabicyclo[3.3.1]nonan-9-yl)-4-(2-(methylsulfonyl)propan-2-yl)pyridin-2-yl)-1H-pyrrolo[3,2-b]pyridin-2-yl)-N-methylmethanamine]", "values": [
      {"measurement": "IC50", "result": "3.16 to 316", "unit": "nM"}
    ]},
    {"smiles": "CC[C@H]1COCCN1c1cc(C(C)(C)S(N)(=O)=O)cc(-c2ccc3[nH]c(CNC)cc3n2)n1", "note": "[Example 28, 2-{2-[(3S)-3-ethylmorpholin-4-yl]-6-{2-[(methylamino)methyl]-1H-pyrrolo[3,2-b]pyridin-5-yl}pyridin-4-yl}propane-2-sulfonamide]", "values": [
      {"measurement": "IC50", "result": "3.16 to 316", "unit": "nM"}
    ]},
    {"smiles": "CC[C@H]1COCCN1c1cc(C(C)(C)S(=O)(=O)C2CC2)cc(-c2ccc3[nH]c(CNC)cc3n2)n1", "note": "[Example 9, (S)-1-(5-(4-(2-(cyclopropylsulfonyl)propan-2-yl)-6-(3-ethylmorpholino)pyridin-2-yl)-1H-pyrrolo[3,2-b]pyridin-2-yl)-N-methylmethanamine]", "values": [
      {"measurement": "IC50", "result": "3.16 to 316", "unit": "nM"}
    ]},
    {"smiles": "CNCc1cc2nc(-c3cc(C4(S(C)(=O)=O)CC4)cc(N4CCOC[C@@H]4C)n3)ccc2[nH]1", "note": "[Example 20, ({5-[4-(1-methanesulfonylcyclopropyl)-6-[(3S)-3-methylmorpholin-4-yl]pyridin-2-yl]-1H-pyrrolo[3,2-b]pyridin-2-yl}methyl)(methyl)amine]", "values": [
      {"measurement": "IC50", "result": "3.16 to 316", "unit": "nM"}
    ]},
    {"smiles": "CC[C@H]1COCCN1c1cc(CS(=O)(=O)N(C)C)cc(-c2ccc3[nH]c(CNC)cc3n2)n1", "note": "[Example 17, (S)-1-(2-(3-ethylmorpholino)-6-(2-((methylamino)methyl)-1H-pyrrolo[3,2-b]pyridin-5-yl)pyridin-4-yl)-N,N-dimethylmethanesulfonamide]", "values": [
      {"measurement": "IC50", "result": "2.51 to 10", "unit": "nM"}
    ]},
    {"smiles": "CNCc1cc2nc(-c3cc(C4(S(C)(=O)=O)CCOCC4)cc(N4C5CCC4COC5)n3)ccc2[nH]1", "note": "[Example 40, ({5-[4-(4-methanesulfonyloxan-4-yl)-6-{3-oxa-8-azabicyclo[3.2.1]octan-8-yl}pyridin-2-yl]-1H-pyrrolo[3,2-b]pyridin-2-yl}methyl)(methyl)amine]", "values": [
      {"measurement": "IC50", "result": "3.16 to 316", "unit": "nM"}
    ]},
    {"smiles": "CNCc1cc2nc(-c3cc(CS(C)(=O)=O)cc(N4CC5CCC(C4)O5)n3)ccc2[nH]1", "note": "[Example 25, ({5-[4-(methanesulfonylmethyl)-6-{8-oxa-3-azabicyclo[3.2.1]octan-3-yl}pyridin-2-yl]-1H-pyrrolo[3,2-b]pyridin-2-yl}methyl)(methyl)amine]", "values": [
      {"measurement": "IC50", "result": "3.16 to 316", "unit": "nM"}
    ]},
    {"smiles": "CC[C@H]1COCCN1c1cc(C2(S(C)(=O)=O)CCOCC2)cc(-c2ccc3[nH]c(CN)cc3n2)n1", "note": "[Example 23, 1-(5-{6-[(3S)-3-ethylmorpholin-4-yl]-4-(4-methanesulfonyloxan-4-yl)pyridin-2-yl}-1H-pyrrolo[3,2-b]pyridin-2-yl)methanamine]", "values": [
      {"measurement": "IC50", "result": "2.51 to 10", "unit": "nM"}
    ]},
    {"smiles": "CCS(=O)(=O)C(C)(C)c1cc(-c2ccc3[nH]c(CNC)cc3n2)nc(N2CCOC[C@@H]2C)c1", "note": "[Example 7, (S)-1-(5-(4-(2-(ethylsulfonyl)propan-2-yl)-6-(3-methylmorpholino)pyridin-2-yl)-1H-pyrrolo[3,2-b]pyridin-2-yl)-N-methylmethanamine]", "values": [
      {"measurement": "IC50", "result": "3.16 to 316", "unit": "nM"}
    ]},
    {"smiles": "CNCc1cc2nc(-c3cc(CS(C)(=O)=O)cc(N4CCOC[C@@H]4C)n3)ccc2[nH]1", "note": "[Example 6, (S)—N-methyl-1-(5-(6-(3-methylmorpholino)-4-((methylsulfonyl)methyl)pyridin-2-yl)-1H-pyrrolo[3,2-b]pyridin-2-yl)methanamine]", "values": [
      {"measurement": "IC50", "result": "3.16 to 316", "unit": "nM"}
    ]},
    {"smiles": "CC[C@H]1COCCN1c1cc(C2(S(=O)(=O)N(C)C)CCOCC2)cc(-c2ccc3[nH]c(CNC)cc3n2)n1", "note": "[Example 31, 4-{2-[(3S)-3-ethylmorpholin-4-yl]-6-{2-[(methylamino)methyl]-1H-pyrrolo[3,2-b]pyridin-5-yl}pyridin-4-yl}-N,N-dimethyloxane-4-sulfonamide]", "values": [
      {"measurement": "IC50", "result": "2.51 to 10", "unit": "nM"}
    ]},
    {"smiles": "CC[C@H]1COCCN1c1cc(CS(=O)(=O)C2CC2)cc(-c2ccc3[nH]c(CNC)cc3n2)n1", "note": "[Example 10, (S)-1-(5-(4-((cyclopropylsulfonyl)methyl)-6-(3-ethylmorpholino)pyridin-2-yl)-1H-pyrrolo[3,2-b]pyridin-2-yl)-N-methylmethanamine]", "values": [
      {"measurement": "IC50", "result": "2.51 to 10", "unit": "nM"}
    ]},
    {"smiles": "CC[C@H]1COCCN1c1cc(C(C)(C)S(C)(=O)=O)cc(-c2ccc3[nH]c(CN)cc3n2)n1", "note": "[Example 21, 1-(5-{6-[(3S)-3-ethylmorpholin-4-yl]-4-(2-methanesulfonylpropan-2-yl)pyridin-2-yl}-1H-pyrrolo[3,2-b]pyridin-2-yl)methanamine]", "values": [
      {"measurement": "IC50", "result": "3.16 to 316", "unit": "nM"}
    ]},
    {"smiles": "CC[C@H]1COCCN1c1cc(C2(S(C)(=O)=O)CCOCC2)cc(-c2ccc3[nH]c(CO)cc3n2)n1", "note": "[Example 33, (5-{6-[(3S)-3-ethylmorpholin-4-yl]-4-(4-methanesulfonyloxan-4-yl)pyridin-2-yl}-1H-pyrrolo[3,2-b]pyridin-2-yl)methanol]", "values": [
      {"measurement": "IC50", "result": "2.51 to 10", "unit": "nM"}
    ]},
    {"smiles": "CC[C@H]1COCCN1c1cc(C2(S(C)(=O)=O)CC2)cc(-c2ccc3[nH]c(CNC)cc3n2)n1", "note": "[Example 19, [(5-{6-[(3S)-3-ethylmorpholin-4-yl]-4-(1-methanesulfonylcyclopropyl)pyridin-2-yl}-1H-pyrrolo[3,2-b]pyridin-2-yl)methyl](methyl)amine]", "values": [
      {"measurement": "IC50", "result": "2.51 to 10", "unit": "nM"}
    ]},
    {"smiles": "CNCc1cc2nc(-c3cc(C(F)(F)S(C)(=O)=O)cc(N4CCOC[C@@H]4C)n3)ccc2[nH]1", "note": "[Example 12, (S)-1-(5-(4-(difluoro(methylsulfonyl)methyl)-6-(3-methylmorpholino)pyridin-2-yl)-1H-pyrrolo[3,2-b]pyridin-2-yl)-N-methylmethanamine]", "values": [
      {"measurement": "IC50", "result": "3.16 to 316", "unit": "nM"}
    ]},
    {"smiles": "CC[C@H]1COCCN1c1cc(CS(=O)(=O)N(C)C)cc(-c2ccc3[nH]c(CO)cc3n2)n1", "note": "[Example 35, 1-{2-[(3S)-3-ethylmorpholin-4-yl]-6-[2-(hydroxymethyl)-1H-pyrrolo[3,2-b]pyridin-5-yl]pyridin-4-yl}-N,N-dimethylmethanesulfonamide]", "values": [
      {"measurement": "IC50", "result": "2.51 to 10", "unit": "nM"}
    ]},
    {"smiles": "CNCc1cc2nc(-c3cc(C(C)(C)S(C)(=O)=O)cc(N4[C@@H]5CC[C@H]4COC5)n3)ccc2[nH]1", "note": "[Example 3, 1-(5-(6-((1R,5S)-3-oxa-8-azabicyclo[3.2.1]octan-8-yl)-4-(2-(methylsulfonyl)propan-2-yl)pyridin-2-yl)-1H-pyrrolo[3,2-b]pyridin-2-yl)-N-methylmethanamine]", "values": [
      {"measurement": "IC50", "result": "3.16 to 316", "unit": "nM"}
    ]},
    {"smiles": "CC[C@H]1COCCN1c1cc(CS(C)(=O)=O)cc(-c2ccc3[nH]c(CO)cc3n2)n1", "note": "[Example 34, (5-{6-[(3S)-3-ethylmorpholin-4-yl]-4-(methanesulfonylmethyl)pyridin-2-yl}-1H-pyrrolo[3,2-b]pyridin-2-yl)methanol]", "values": [
      {"measurement": "IC50", "result": "2.51 to 10", "unit": "nM"}
    ]},
    {"smiles": "CC[C@H]1COCCN1c1cc(CS(C)(=O)=O)cc(-c2ccc3[nH]c(CNC)cc3n2)n1", "note": "[Example 13, (S)-1-(5-(6-(3-ethylmorpholino)-4-((methylsulfonyl)methyl)pyridin-2-yl)-1H-pyrrolo[3,2-b]pyridin-2-yl)-N-methylmethanamine]", "values": [
      {"measurement": "IC50", "result": "3.16 to 316", "unit": "nM"}
    ]},
    {"smiles": "CC[C@H]1COCCN1c1cc(CS(=O)(=O)NC)cc(-c2ccc3[nH]c(CNC)cc3n2)n1", "note": "[Example 30, 1-{2-[(3S)-3-ethylmorpholin-4-yl]-6-{2-[(methylamino)methyl]-1H-pyrrolo[3,2-b]pyridin-5-yl}pyridin-4-yl}-N-methylmethanesulfonamide]", "values": [
      {"measurement": "IC50", "result": "3.16 to 316", "unit": "nM"}
    ]},
    {"smiles": "CC[C@H]1COCCN1c1cc(C2(S(=O)(=O)C3CC3)CC2)cc(-c2ccc3[nH]c(CNC)cc3n2)n1", "note": "[Example 11, (S)-1-(5-(4-(1-(cyclopropylsulfonyl)cyclopropyl)-6-(3-ethylmorpholino)pyridin-2-yl)-1H-pyrrolo[3,2-b]pyridin-2-yl)-N-methylmethanamine]", "values": [
      {"measurement": "IC50", "result": "3.16 to 316", "unit": "nM"}
    ]}
  ]
}
